Assays:
[1] = tested on: Gram-positive bacteria, Gram-negative bacteria and fungi (twelve different strains); assay: Liquid growth inhibition MIC against larger panel of microorganisms (MIC average); assay type: cell-based; settings: for MIC Average: average of MIC over twelve different strains; for antimicrobial activity: second-generation analogs, larger panel
Excerpt: FIGS. 5A-5D. Antimicrobial activity of second-generation library of synthetic peptides. FIG. 5A. In vitro activity of Pol-CP—NH2 and second generation of analogs against Gram-positive bacteria (Micrococcus luteus, Staphylococcus aureus, Staphylococcus epidermidis and Bacillus megaterium), Funghi (Candida albicans and Candida tropicalis) and Gram-negative bacteria (Escherichia coli, Enterobacter cloacae and Serratia marcescens). Experiments performed in triplicates. FIG. 5B. MIC (μmol L^−1) average vs fH in TFE/Water solution. FIG. 5C. Graph correlating MIC (μmol L^−1) averages vs H and (FIG. 5D) MIC (μmol L^−1) averages vs μH, where dots above the dashed line represent peptides with lower activity and dots below the dashed line show peptides with higher activity compared to the wild-type, in which one can observe ranges of optimal activity in determined intervals of H and μH values.
Microorganisms. The following strains were used: Micrococcus luteus A270, Staphylococcus aureus ATCC29213, Staphylococcus epidermidis ATCC12228, Bacillus megaterium ATCC10778 Escherichia coli SBS 363, Enterobacter cloacae ®-12, Serratia marcescens ATCC4112, Candida albicans MDM8, Candida tropicalis IOC4560 from Instituto Butanta, Sao Paulo, Brazil, and Escherichia coli BL21, Pseudomonas aeruginosa PA14, Pseudomonas aeruginosa PA01 and Staphylococcus aureus ATCC12600 from Synthetic Biology Group at MIT.
MIC assays. The MIC assays were performed using the broth microdilution method (Wiegand I. et al., Protoc. 3, 163-175 (2008); de la Fuente-Núñez C. et al., Antimicrob. Agents Chemother. 56, 2696-2704 (2012)) in sterile 96-well polypropylene microtiter plates. Peptides were added to the plate as solutions in BM2 minimal medium in concentrations ranging from 0 to 128 ? mol L^−1, and the bacteria were inoculated at a final concentration of 5×10^5 CFU mL^−1 per well. The plates were incubated at 37° C. for 24 h. The MIC was defined as the lowest concentration of compound at which no growth was observed. Additional liquid growth inhibition assays were done in Peptone Broth (PB, 0.5% NaCl, 1% Peptone at pH 7.4) and Potato Dextrose Broth (Invitrogen) were used for antibacterial and antifungal assays, respectively. Briefly, bacteria or fungi were incubated with serial dilutions of polybia-CP and analogs (50-0.09 μmol L^−1) in a 96-well microplate at 37° C. The microbial growth was assessed by measurements in a model 354 Multiskan Ascent microplate reader at A595nm, after 18 and 24 h (bacteria and fungi, respectively) incubation on a model 347CD FANEM incubator. MIC was defined as the minimal inhibitory concentration that prevents 100% of the bacterial growth. All assays were done in triplicate.

[2] = tested on: P. aeruginosa strain PA01; assay: MIC assay (broth microdilution) against P. aeruginosa PA01; assay type: cell-based, Pseudomonas aeruginosa; settings: P. aeruginosa PA01, 24 h, 37° C.
Excerpt: (§1) FIGS. 2A-2E. Design, physicochemical features and activity of Pol-CP—NH2 and Ala-scan analogs. FIG. 2A. Theoretical physicochemical properties of interest of the wild type and Ala-scan analogs, where H denotes hydrophobicity, μH is the hydrophobic moment, q represents the net charge and P/N is the ratio of polar/non-polar residues in the sequence. Top to bottom, left to right the sequences correspond to SEQ ID NOs: 1-13. FIG. 2B. Schematic of the in vitro biological activity experimental design. Briefly, 10^4 bacterial cells and serially diluted peptides (0-128 μmol L^−1) were added to a 96-well plate and incubated at 37° C. One day after the exposure, the solution in each well was measured in a microplate reader (600 nm) to check inhibition of bacteria compared to the untreated controls and presented as heat maps of antimicrobial activities (μmol L^−1) against four bacteria strains: E. coli strain BL21, S. aureus strain ATCC12600 and P. aeruginosa strains PA01, and PA14. Assays were performed in triplicates. FIG. 2C. Graph correlating MIC (μmol L^−1) averages vs H and (FIG. 2D) MIC (μmol L^−1) averages vs μH, where dots […] the dashed line show peptides with higher activity compared to the wild type, in which one can observe ranges of optimal activity in determined intervals of H and μH values. FIG. 2E. […]

[3] = tested on: S. aureus strain ATCC12600; assay: MIC assay (broth microdilution) against S. aureus ATCC12600; assay type: cell-based, Staphylococcus aureus; settings: S. aureus ATCC12600, 24 h, 37° C.
Excerpt: as §1

P. aeruginosa = assay: MIC against P. aeruginosa (strain not given); assay type: cell-based, Pseudomonas aeruginosa
Excerpt: as §1

Substance	MIC Average [1] [µM]	MIC [2] [µM]	MIC [3] [µM]	MIC against P. aeruginosa (P. aeruginosa; strain not stated) [µM]	antimicrobial activity ([1]; listed as [Lys]'-Pol-CP—NH2)	antimicrobial activity ([1]; listed as [Lys]^7-Pol-CP—NH2)	activity against P. aeruginosa (P. aeruginosa; in vitro, selection of peptides for the mouse model)
H-ILGTILGLLKSL-NH2 [WT, ILGTILGLLKSL-NH2, reference compound]	16.2	64.0	64.0	64	–	–	–
H-ILGTILKLLKSL-NH2 [Peptide 16, ILGTILKLLKSL-NH2]	1.4	–	–	–	impacted favorably both structure and antimicrobial activity	most active	high activity
